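These data come from cells grown in 96-well plates and exposed to compound for 48 hours at five concentrations. Definition used: TGI = concentration required for complete inhibition of growth.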
Assays:
Assay in all cases: NCI-60 cell line screen, 48 h
[1] = test system: OVCAR-4 ovarian
[2] = test system: MALME-3M melanoma
[3] = test system: SW-620 colon
[4] = test system: MDA-MB-435
[5] = test system: OVCAR-5 ovarian
[6] = test system: OVCAR-8 ovarian
[7] = test system: HCC-2998 colon
[8] = test system: LOX IMVI melanoma
[9] = test system: UACC-257 melanoma
[10] = test system: SN12C renal
[11] = test system: EKVX NSCLC
[12] = test system: HCT-116 colon
[13] = test system: MDA-N
[14] = test system: SF-268 CNS
[15] = test system: K-562 leukemia
[16] = test system: NCI-H226 lung
[17] = test system: COLO 205 colon
[18] = test system: TK-10 renal
[19] = test system: BT-549 breast
[20] = test system: U251 CNS
[21] = test system: 786-0 renal
[22] = test system: SR leukemia
[23] = test system: KM12 colon
[24] = test system: RXF 393 renal
[25] = test system: HOP-92 NSCLC
[26] = test system: MCF7 breast
[27] = test system: CCRF-CEM leukemia
[28] = test system: CAKI-1 renal
[29] = test system: A549 NSCLC
[30] = test system: NCI-H23 lung
[31] = test system: RPMI-8226 leukemia
[32] = test system: MOLT-4 leukemia
[33] = test system: NCI-H460 lung
[34] = test system: SNB-19 CNS
[35] = test system: HCT-15 colon
[36] = test system: SK-MEL-2 melanoma
[37] = test system: T-47D breast
[38] = test system: OVCAR-3 ovarian
[39] = test system: SF-295 CNS
[40] = test system: HL-60(TB) leukemia
[41] = test system: HOP-62 NSCLC
[42] = test system: UO-31 renal
[43] = test system: PC-3 prostate
[44] = test system: HT29 colon
[45] = test system: M14 melanoma
[46] = test system: NCI-H522 lung
[47] = test system: NCI/ADR-RES ovarian
[48] = test system: MDA-MB-231 breast
[49] = test system: DU-145 prostate
[50] = test system: ACHN renal
[51] = test system: HS 578T breast
[52] = test system: IGROV1 ovarian
[53] = test system: UACC-62 melanoma
[54] = test system: SK-OV-3 ovarian
[55] = test system: SK-MEL-5 melanoma
[56] = test system: SF-539 CNS
[57] = test system: A498 renal
[58] = test system: SK-MEL-28 melanoma
[59] = test system: SNB-75 CNS

`CO/C(=N\N=C\c1ccccc1F)c1ccncc1` showed a TGI [1] of over 10 µM, a TGI [2] of over 10 µM and a TGI [3] of over 10 µM. It also gave a TGI [4] of over 10 µM, a TGI [5] of over 10 µM and a TGI [6] of over 10 µM. For the same molecule, the TGI [7] was over 10 µM, the TGI [8] was over 10 µM and the TGI [9] was over 10 µM. For the same molecule, the TGI [10] was over 10 µM, the TGI [11] was over 10 µM and the TGI [12] was over 10 µM. The TGI [13] was over 10 µM, the TGI [14] was over 10 µM and the TGI [15] was over 10 µM. For the same molecule, the TGI [16] was over 10 µM, the TGI [17] was over 10 µM and the TGI [18] was over 10 µM. It also gave a TGI [19] of over 10 µM, a TGI [20] of over 10 µM and a TGI [21] of over 10 µM. It also gave a TGI [22] of over 10 µM, a TGI [23] of over 10 µM and a TGI [24] of over 10 µM. The TGI [25] was over 10 µM, the TGI [26] was over 10 µM and the TGI [27] was over 10 µM. It also gave a TGI [28] of over 10 µM, a TGI [29] of over 10 µM and a TGI [30] of over 10 µM. It also gave a TGI [31] of over 10 µM, a TGI [32] of over 10 µM and a TGI [33] of over 10 µM. It also gave a TGI [34] of over 10 µM, a TGI [35] of over 10 µM and a TGI [36] of over 10 µM. It also gave a TGI [37] of over 10 µM, a TGI [38] of over 10 µM and a TGI [39] of over 10 µM. It also gave a TGI [40] of over 10 µM, a TGI [41] of over 10 µM and a TGI [42] of over 10 µM. For the same molecule, the TGI [43] was over 10 µM, the TGI [44] was over 10 µM and the TGI [45] was over 10 µM. For the same molecule, the TGI [46] was over 10 µM, the TGI [47] was over 10 µM and the TGI [48] was over 10 µM. For the same molecule, the TGI [49] was over 10 µM and the TGI [50] was over 10 µM.
Work on `C=C1CC[C@]2(C)[C@H](CC[C@@]34C[C@@H](CC[C@H]32)[C@@H](C(=O)O)C4)C1(C)C` yielded a TGI [1] of over 12.5 µM, a TGI [2] of over 12.5 µM and a TGI [3] of over 12.5 µM. The TGI [4] was over 12.5 µM, the TGI [5] was over 12.5 µM and the TGI [51] was over 12.5 µM. The TGI [6] was over 12.5 µM, the TGI [8] was over 12.5 µM and the TGI [9] was over 12.5 µM. The TGI [10] was over 12.5 µM, the TGI [52] was over 12.5 µM and the TGI [11] was over 12.5 µM. It also gave a TGI [12] of over 12.5 µM, a TGI [13] of over 12.5 µM and a TGI [15] of over 12.5 µM. It also gave a TGI [53] of over 12.5 µM, a TGI [16] of over 12.5 µM and a TGI [54] of over 12.5 µM. The TGI [17] was over 12.5 µM, the TGI [18] was over 12.5 µM and the TGI [19] was over 12.5 µM. The TGI [55] was over 12.5 µM, the TGI [20] was over 12.5 µM and the TGI [21] was over 12.5 µM. It also gave a TGI [22] of over 12.5 µM, a TGI [23] of over 12.5 µM and a TGI [24] of over 12.5 µM. The TGI [25] was over 12.5 µM, the TGI [26] was over 12.5 µM and the TGI [27] was over 12.5 µM. The TGI [28] was over 12.5 µM, the TGI [29] was over 12.5 µM and the TGI [30] was over 12.5 µM. The TGI [32] was over 12.5 µM, the TGI [33] was over 12.5 µM and the TGI [34] was over 12.5 µM. The TGI [35] was over 12.5 µM, the TGI [36] was over 12.5 µM and the TGI [38] was over 12.5 µM. It also gave a TGI [39] of over 12.5 µM, a TGI [40] of over 12.5 µM and a TGI [41] of over 12.5 µM. It also gave a TGI [56] of over 12.5 µM, a TGI [42] of over 12.5 µM and a TGI [43] of over 12.5 µM. The TGI [44] was over 12.5 µM, the TGI [45] was over 12.5 µM and the TGI [47] was over 12.5 µM. The TGI [57] was 9.3 µM, the TGI [58] was over 12.5 µM and the TGI [48] was over 12.5 µM. The TGI [50] was over 12.5 µM.
Molecule `CC(NC(=O)OC(C)(C)C)C(=O)NC1CCCC1` (configuration not stated) has a TGI [1] of over 100 µM, a TGI [2] of over 100 µM and a TGI [3] of over 100 µM. It also gave a TGI [4] of over 100 µM, a TGI [5] of over 100 µM and a TGI [51] of over 100 µM. The TGI [6] was over 100 µM, the TGI [7] was over 100 µM and the TGI [8] was over 100 µM. It also gave a TGI [9] of over 100 µM, a TGI [10] of over 100 µM and a TGI [52] of over 100 µM. The TGI [11] was over 100 µM, the TGI [12] was over 100 µM and the TGI [13] was over 100 µM. It also gave a TGI [14] of over 100 µM, a TGI [15] of over 100 µM and a TGI [16] of over 100 µM. It also gave a TGI [54] of over 100 µM, a TGI [17] of over 100 µM and a TGI [18] of over 100 µM. It also gave a TGI [55] of over 100 µM, a TGI [21] of over 100 µM and a TGI [22] of over 100 µM. For the same molecule, the TGI [23] was over 100 µM, the TGI [24] was over 100 µM and the TGI [25] was over 100 µM. The TGI [26] was over 100 µM, the TGI [27] was over 100 µM and the TGI [28] was over 100 µM. It also gave a TGI [29] of over 100 µM, a TGI [30] of over 100 µM and a TGI [31] of over 100 µM. It also gave a TGI [32] of over 100 µM, a TGI [33] of over 100 µM and a TGI [34] of over 100 µM. It also gave a TGI [59] of over 100 µM, a TGI [38] of over 100 µM and a TGI [39] of over 100 µM. It also gave a TGI [40] of over 100 µM, a TGI [42] of over 100 µM and a TGI [43] of over 100 µM. For the same molecule, the TGI [44] was over 100 µM, the TGI [45] was over 100 µM and the TGI [46] was over 100 µM. The TGI [47] was over 100 µM, the TGI [57] was over 100 µM and the TGI [58] was over 100 µM. For the same molecule, the TGI [49] was over 100 µM and the TGI [50] was over 100 µM.

— PubChem BioAssay (NCI)
